Reference: ChEMBL document CHEMBL1201862, “PubChem BioAssay data set” (2004)
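Step 1: Grow cells in 96-well plates. Step 2: Expose to compound for 48 hours at 5 concentrations. Step 3: Interpolate endpoints linearly; if unreached, use highest concentration. GI50 = concentration required for 50% inhibition of growth.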 Active and inactive are the calls of the source. No stated cut-off is given here; in the data, active = GI50 up to about 1.1 µM and inactive = higher.

Columns and labels:
Test in all cases: inhibition of tumour cell growth, NCI panel, 48 h
HOP-92 = test system: HOP-92
SF-539 = test system: SF-539
RXF 393 = test system: RXF 393
CCRF-CEM = test system: CCRF-CEM
IGROV-1 = test system: IGROV-1
786-0 = test system: 786-0
MDA-MB-231 = test system: MDA-MB-231
A549 = test system: A549
NCI-H460 = test system: NCI-H460
A498 = test system: A498
MDA-MB-435 = test system: MDA-MB-435
OVCAR-5 = test system: OVCAR-5
SF-268 = test system: SF-268
HL-60 = test system: HL-60
HCT-116 = test system: HCT-116
KM12 = test system: KM12
SK-MEL-28 = test system: SK-MEL-28
SK-OV-3 = test system: SK-OV-3
COLO 205 = test system: COLO 205
BT-549 = test system: BT-549

Measured: GI50

C/C(=C\CO)CC[C@@H]1[C@@]2(C)CCCC(C)(C)[C@@H]2CC[C@@]1(C)O
inactive: HOP-92 16.7 µM | SF-539 18.1 µM | RXF 393 17.6 µM | CCRF-CEM 20.4 µM | IGROV-1 17 µM | 786-0 20.4 µM | MDA-MB-231 17.3 µM | A549 29.6 µM | NCI-H460 17.3 µM | A498 17 µM | MDA-MB-435 18.3 µM | OVCAR-5 23.1 µM | SF-268 17.7 µM | HL-60 20.5 µM | HCT-116 22 µM | KM12 19.2 µM | SK-MEL-28 22.3 µM | SK-OV-3 21.3 µM | COLO 205 17.7 µM | BT-549 18.3 µM

CC1(C)C=C(/C=C2/N(S(=O)(=O)C(F)(F)F)C(/C=C3/N(S(=O)(=O)C(F)(F)F)C(C)(C#N)CC3(C)C)=CC2(C)C)N=C1/C=C1/CC(C)(C)C(=O)N1 (stereo not given)
inactive: HOP-92 24.7 µM | SF-539 24.8 µM | RXF 393 18.6 µM | CCRF-CEM 2.84 µM | IGROV-1 7.24 µM | 786-0 20.7 µM | MDA-MB-231 23.1 µM | A549 32.8 µM | NCI-H460 20.8 µM | A498 55.6 µM | MDA-MB-435 15 µM | OVCAR-5 57.5 µM | SF-268 5.79 µM | HL-60 1.41 µM | HCT-116 3.73 µM | KM12 5.77 µM | SK-MEL-28 51.2 µM | SK-OV-3 45.7 µM | COLO 205 14.2 µM | BT-549 27.2 µM

O=C(CCc1ccccc1)NCCc1ccc(O)c(O)c1
inactive: HOP-92 17.4 µM | SF-539 23.2 µM | RXF 393 > 100 µM | CCRF-CEM 1.42 µM | IGROV-1 23.5 µM | 786-0 21.5 µM | MDA-MB-231 24.8 µM | A549 47.5 µM | NCI-H460 46.9 µM | A498 78.2 µM | MDA-MB-435 15.6 µM | OVCAR-5 > 31.6 µM | SF-268 33.8 µM | HL-60 3.43 µM | HCT-116 27.7 µM | KM12 34.8 µM | SK-MEL-28 45.6 µM | SK-OV-3 27.2 µM | COLO 205 17 µM | BT-549 7.01 µM

O=C1C=C(O)C(=O)c2c(O)ccc(O)c21
inactive: HOP-92 > 100 µM | SF-539 > 100 µM | RXF 393 > 100 µM | CCRF-CEM > 100 µM | IGROV-1 > 100 µM | 786-0 > 100 µM | MDA-MB-231 > 100 µM | A549 > 100 µM | NCI-H460 > 100 µM | A498 > 100 µM | MDA-MB-435 > 100 µM | OVCAR-5 > 100 µM | SF-268 > 100 µM | HL-60 58.5 µM | HCT-116 > 100 µM | KM12 > 100 µM | SK-MEL-28 > 100 µM | SK-OV-3 > 100 µM | COLO 205 92 µM | BT-549 > 100 µM
